Measurements taken from paper PMC10504751, “Chalcone/1,3,4-Oxadiazole/Benzimidazole hybrids as novel anti-proliferative agents inducing apoptosis and inhibiting EGFR & BRAFV^600E” (BMC Chemistry, 2023).

What was measured:
Assay in all cases: NCI one-dose SRB anti-proliferative screen
Assay type in all cases: cell-based
[1] = test system: MALME-3M; details: Homo sapiens; MALME-3M, Melanoma; NCI one dose; read-out: Cell growth inhibition %
In short: (§1)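 Compounds were tested at a single 10 µM concentration within a 60-cell-line panel covering nine tumour subpanels. Growth was read colorimetrically by sulforhodamine B staining.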

[2] = test system: A498; details: Homo sapiens; A498, Renal cancer; NCI one dose; read-out: Cell growth inhibition %
In short: as §1

[3] = test system: HCT-15; details: Homo sapiens; HCT-15, Colon cancer; NCI one dose; read-out: Cell growth inhibition %
In short: as §1

[4] = test system: OVCAR-3; details: Homo sapiens; OVCAR-3, Ovarian Cancer; NCI one dose; read-out: Cell growth inhibition %
In short: as §1

[5] = test system: U251; details: Homo sapiens, U-251; U251, CNS Cancer; NCI one dose; read-out: Cell growth inhibition %
In short: as §1

[6] = test system: SR; details: Homo sapiens; SR, Leukemia; NCI one dose; read-out: Cell growth inhibition %
In short: as §1

[7] = test system: LOX IMVI; details: Homo sapiens; for inhibition at 10 µM: Melanoma, NCI one dose, read-out: Cell growth inhibition %
In short: as §1

[8] = test system: UO-31; details: Homo sapiens; UO-31, Renal cancer; NCI one dose; read-out: Cell growth inhibition %
In short: as §1

[9] = test system: OVCAR-4; details: Homo sapiens; OVCAR-4, Ovarian Cancer; NCI one dose; read-out: Cell growth inhibition %
In short: as §1

[10] = test system: 786-0; details: Homo sapiens; 786-0, Renal cancer; NCI one dose; read-out: Cell growth inhibition %
In short: as §1

[11] = test system: SK-MEL-2; details: Homo sapiens; SK-MEL-2, Melanoma; NCI one dose; read-out: Cell growth inhibition %
In short: as §1

[12] = test system: NCI-H322M; details: Homo sapiens; NCI-H322M, Non-Small Cell Lung Cancer; NCI one dose; read-out: Cell growth inhibition %
In short: as §1

[13] = test system: NCI/ADR-RES; details: Homo sapiens; NCI/ADR-RES, Ovarian Cancer; NCI one dose; read-out: Cell growth inhibition %
In short: as §1

[14] = test system: A549/ATCC; details: Homo sapiens; A549/ATCC, Non-Small Cell Lung Cancer; NCI one dose; read-out: Cell growth inhibition %
In short: as §1

[15] = test system: NCI-H226; details: Homo sapiens; NCI-H226, Non-Small Cell Lung Cancer; NCI one dose; read-out: Cell growth inhibition %
In short: as §1

[16] = test system: MDA-MB-231/ATCC; details: Homo sapiens; MDA-MB-231/ATCC, Breast cancer; NCI one dose; read-out: Cell growth inhibition %
In short: as §1

[17] = test system: TK-10; details: Homo sapiens; TK-10, Renal cancer; NCI one dose; read-out: Cell growth inhibition %
In short: as §1

[18] = test system: ACHN; details: Homo sapiens; ACHN, Renal cancer; NCI one dose; read-out: Cell growth inhibition %
In short: as §1

[19] = test system: PC-3; details: Homo sapiens; PC-3, Prostate Cancer; NCI one dose; read-out: Cell growth inhibition %
In short: as §1

[20] = test system: BT-549; details: Homo sapiens; BT-549, Breast cancer; NCI one dose; read-out: Cell growth inhibition %
In short: as §1

[21] = test system: NCI-H522; details: Homo sapiens; NCI-H522, Non-Small Cell Lung Cancer; NCI one dose; read-out: Cell growth inhibition %
In short: as §1

[22] = test system: OVCAR-5; details: Homo sapiens; OVCAR-5, Ovarian Cancer; NCI one dose; read-out: Cell growth inhibition %
In short: as §1

[23] = test system: MDA-MB-435; details: Homo sapiens; MDA-MB-435, Melanoma; NCI one dose; read-out: Cell growth inhibition %
In short: as §1

[24] = test system: HL-60(TB); details: Homo sapiens; HL-60(TB), Leukemia; NCI one dose; read-out: Cell growth inhibition %
In short: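 Activity reflects a single-point exposure at 10 µM, with cell mass determined by a sulforhodamine B dye assay.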

[25] = test system: SK-MEL-28; details: Homo sapiens; SK-MEL-28, Melanoma; NCI one dose; read-out: Cell growth inhibition %
In short: as §1

[26] = test system: SN12C; details: Homo sapiens, SN 12C, Renal cancer, NCI one dose, read-out: Cell growth inhibition %
In short: as §1

[27] = test system: OVCAR-8; details: Homo sapiens; OVCAR-8, Ovarian Cancer; NCI one dose; read-out: Cell growth inhibition %
In short: as §1

[28] = test system: UACC-62; details: Homo sapiens; UACC-62, Melanoma; NCI one dose; read-out: Cell growth inhibition %
In short: as §1

[29] = test system: NCI-H23; details: Homo sapiens; NCI-H23, Non-Small Cell Lung Cancer; NCI one dose; read-out: Cell growth inhibition %
In short: as §1

[30] = test system: SF-539; details: Homo sapiens; SF-539, CNS Cancer; NCI one dose; read-out: Cell growth inhibition %
In short: as §1

SMILES	inhibition at 10 µM [1]	inhibition at 10 µM [2]	inhibition at 10 µM [3]	inhibition at 10 µM [4]	inhibition at 10 µM [5]	inhibition at 10 µM [6]	inhibition at 10 µM [7]	inhibition at 10 µM [8]	inhibition at 10 µM [9]	inhibition at 10 µM [10]	inhibition at 10 µM [11]	inhibition at 10 µM [12]	inhibition at 10 µM [13]	inhibition at 10 µM [14]	inhibition at 10 µM [15]	inhibition at 10 µM [16]	inhibition at 10 µM [17]	inhibition at 10 µM [18]	inhibition at 10 µM [19]	inhibition at 10 µM [20]	also measured
COc1ccc(/C=C/C(=O)c2ccc(NC(=O)CSc3nnc(-c4ccc5[nH]c(-c6ccccc6)nc5c4)o3)cc2)cc1 [Compound 7c, 2-{5-[2-Phenyl-1 H-benzo[d]imidazol-5-yl]-1,3,4-oxadiazol-2-ylthio}-N-{4-[(E)-3-(4-methoxyphenyl)acryloyl]phenyl}acetamide]	8.64%	22.6%	3.81%	0%	17.2%	12.7%	6.46%	8.67%	0%	22.6%	2.65%	0%	0%	0%	2.2%	0%	0%	2.58%	5.12%	18.7%	inhibition at 10 µM [21]: 8.81%; inhibition at 10 µM [22]: 0%; inhibition at 10 µM [23]: 0%; inhibition at 10 µM [24]: 5.24%; inhibition at 10 µM [25]: 0%; inhibition at 10 µM [26]: 3.32%; inhibition at 10 µM [27]: 9.58%; inhibition at 10 µM [28]: 9.5%; inhibition at 10 µM [29]: 7.79%; inhibition at 10 µM [30]: 8.76%
COc1cc(/C=C/C(=O)c2ccc(NC(=O)CSc3nnc(-c4ccc5[nH]c(-c6ccccc6)nc5c4)o3)cc2)cc(OC)c1OC [Compound 7e, 2-{5-[2-Phenyl-1 H-benzo[d]imidazol-5-yl]-1,3,4-oxadiazol-2-ylthio}-N-{4-[(E)-3-(3,4,5-trimethoxyphenyl)acryloyl]phenyl}acetamide]	0%	15.6%	12.4%	27.9%	19.4%	63.2%	44%	10.6%	0.46%	24.6%	0%	3.06%	0%	0%	0.66%	6.4%	0%	0%	1.05%	18.4%	activity at 10 µM ([7]; LOX IMVI (Melanoma), 10 µM one dose, read-out: Growth Percent): 56%; inhibition at 10 µM [21]: 4.71%; inhibition at 10 µM [22]: 0%; inhibition at 10 µM [23]: 5.93%; inhibition at 10 µM [24]: 31%; inhibition at 10 µM [25]: 6.64%; inhibition at 10 µM [26]: 9.21%; inhibition at 10 µM [27]: 2.93%; inhibition at 10 µM [28]: 17%; inhibition at 10 µM [29]: 7.28%; inhibition at 10 µM [30]: 17.5%
O=C(CSc1nnc(-c2ccc3[nH]c(-c4ccccc4)nc3c2)o1)Nc1ccc(C(=O)/C=C/c2ccc(Cl)cc2)cc1 [Compound 7b, 2-{5-[2-Phenyl-1 H-benzo[d]imidazol-5-yl]-1,3,4-oxadiazol-2-ylthio}-N-{4-[(E)-3-(4-chlorophenyl)acryloyl]phenyl}acetamide]	0%	6.84%	0%	0%	7.14%	3.59%	12.9%	25.5%	0%	2.96%	0%	0%	0%	0%	3.63%	4.03%	0%	0%	0.53%	1.92%	inhibition at 10 µM [21]: 11.6%; inhibition at 10 µM [22]: 0%; inhibition at 10 µM [23]: 0%; inhibition at 10 µM [24]: 0%; inhibition at 10 µM [25]: 0%; inhibition at 10 µM [26]: 9.8%; inhibition at 10 µM [27]: 2.36%; inhibition at 10 µM [28]: 11.6%; inhibition at 10 µM [29]: 0%; inhibition at 10 µM [30]: 4.06%
